Test results from ChEMBL document CHEMBL1201862, “PubChem BioAssay data set” (2004).
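1) Cells in 96-well plates. 2) Compound, 48 h, 5 concentrations. 3) Linear interpolation between surrounding doses. 4) Unreached endpoint = highest concentration. Here, GI50 denotes the concentration required for 50% inhibition of growth.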 The source made the active and inactive calls. Cut-off read from the data, not from the text of the source: active = GI50 up to about 1.1 µM and inactive = higher.

Tests used:
Assay in all cases: NCI anticancer screen, dose series, 48 h
[1] = tested on: IGROV-1
[2] = tested on: HCT-116
[3] = tested on: ACHN
[4] = tested on: Malme-3M
[5] = tested on: HL-60
[6] = tested on: HOP-18
[7] = tested on: SF-268
[8] = tested on: A549
[9] = tested on: DLD-1
[10] = tested on: CCRF-CEM
[11] = tested on: OVCAR-8
[12] = tested on: DMS-114
[13] = tested on: KM-20L2
[14] = tested on: SW-620
[15] = tested on: LOX IMVI
[16] = tested on: CAKI-1
[17] = tested on: NCI-H460
[18] = tested on: HCT-15
[19] = tested on: NCI-H23
[20] = tested on: M14
[21] = tested on: SNB-75
[22] = tested on: UO-31
[23] = tested on: A498
[24] = tested on: KM12
[25] = tested on: UACC-62
[26] = tested on: HOP-62
[27] = tested on: NCI-H522
[28] = tested on: LXFL 529
[29] = tested on: HCC 2998
[30] = tested on: OVCAR-5
[31] = tested on: OVCAR-4
[32] = tested on: SK-MEL-28
[33] = tested on: EKVX
[34] = tested on: SNB-78
[35] = tested on: SK-OV-3
[36] = tested on: DMS-273
[37] = tested on: RXF 393
[38] = tested on: UACC-257
[39] = tested on: U-251
[40] = tested on: OVCAR-3
[41] = tested on: SK-MEL-5
[42] = tested on: COLO 205
[43] = tested on: M19-MEL
[44] = tested on: SNB-19
[45] = tested on: XF498
[46] = tested on: HT-29
[47] = tested on: RPMI-8226
[48] = tested on: SN12C
[49] = tested on: K562
[50] = tested on: SF-539
[51] = tested on: TK-10
[52] = tested on: SF-295
[53] = tested on: 786-0
[54] = tested on: MOLT-4
[55] = tested on: HOP-92
[56] = tested on: SK-MEL-2

## N=C(N)NS(=O)(=O)c1ccc(Nc2c3ccccc3nc3c(C(=O)Nc4ccc(S(N)(=O)=O)cc4)cccc23)cc1
[1]
  GI50: > 100 µM (inactive)
[2]
  GI50: > 100 µM (inactive)
[3]
  GI50: > 100 µM (inactive)
[4]
  GI50: > 100 µM (inactive)
[5]
  GI50: 88.1 µM (inactive)
[6]
  GI50: > 100 µM (inactive)
[7]
  GI50: 98.9 µM (inactive)
[8]
  GI50: > 100 µM (inactive)
[9]
  GI50: > 100 µM (inactive)
[10]
  GI50: 71.3 µM (inactive)
[11]
  GI50: > 100 µM (inactive)
[12]
  GI50: 45 µM (inactive)
[13]
  GI50: > 100 µM (inactive)
[14]
  GI50: > 100 µM (inactive)
[15]
  GI50: 28.2 µM (inactive)
[16]
  GI50: > 100 µM (inactive)
[17]
  GI50: > 100 µM (inactive)
[18]
  GI50: > 100 µM
[19]
  GI50: > 100 µM (inactive)
[20]
  GI50: > 100 µM (inactive)
[21]
  GI50: 42.1 µM (inactive)
[22]
  GI50: > 100 µM (inactive)
[23]
  GI50: > 100 µM (inactive)
[24]
  GI50: > 100 µM (inactive)
[25]
  GI50: 93.3 µM (inactive)
[26]
  GI50: > 100 µM (inactive)
[27]
  GI50: 15.8 µM (inactive)
[28]
  GI50: 26.8 µM (inactive)
[29]
  GI50: 55.5 µM (inactive)
[30]
  GI50: > 100 µM (inactive)
[31]
  GI50: > 100 µM (inactive)
[32]
  GI50: > 100 µM (inactive)
[33]
  GI50: > 100 µM (inactive)
[34]
  GI50: 76.4 µM (inactive)
[35]
  GI50: > 100 µM (inactive)
[36]
  GI50: > 100 µM (inactive)
[37]
  GI50: 95.3 µM (inactive)
[38]
  GI50: > 100 µM (inactive)
[39]
  GI50: 94.2 µM (inactive)
[40]
  GI50: 36.8 µM (inactive)
[41]
  GI50: 78.9 µM (inactive)
[42]
  GI50: > 100 µM (inactive)
[43]
  GI50: > 100 µM (inactive)
[44]
  GI50: 37 µM (inactive)
[45]
  GI50: 25.3 µM (inactive)
[46]
  GI50: > 100 µM (inactive)
[47]
  GI50: > 100 µM (inactive)
[48]
  GI50: > 100 µM (inactive)
[49]
  GI50: 33.3 µM (inactive)
[50]
  GI50: 52.5 µM (inactive)
[51]
  GI50: > 100 µM (inactive)
[52]
  GI50: > 100 µM (inactive)
[53]
  GI50: > 100 µM (inactive)
[54]
  GI50: > 100 µM (inactive)
[55]
  GI50: 47.9 µM (inactive)
[56]
  GI50: 42.5 µM (inactive)
